Tests used:
[1] = biological target: T1, p53 Y220C mutant protein (amino acid residues 94-293) (Homo sapiens, UniProt P04637, Y220C); test: Surface Plasmon Resonance (SPR) assay, p53 Y220C Kd_kinetic; settings: multi-cycle kinetics, 16 or 20 °C, pH 7.5, 1:1 binding model
T1 construct: p53 Y220C mutant protein (amino acid residues 94-293)
In short: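 Kd from multi-cycle SPR kinetics fitted to a 1:1 model, using 2-fold, 7-point compound series over p53 Y220C (residues 94-293). Flow 30 μL/min, 60 s association, 120 s dissociation, at 16 or 20 °C in 50 mM Tris pH 7.5, 100 mM NaCl, 1 mM DTT, 0.01% Brij35, 0.05% Tween-20, 1% DMSO.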

p53 Y220C = p53 Y220C (Homo sapiens, UniProt P04637, Y220C); test: Luciferase Reporter Assay, p53 Y220C (NCIH1299 cells with inducible p53 Y220C and p53 response element-luciferase); type: cell-based; settings: 6 hour compound treatment, read-out: Luc P53 Y220C AC50
In short: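 NCI-H1299 cells stably carrying a p53 response element-luciferase reporter and Tet-inducible p53 Y220C were induced with 0.5 ug/mL doxycycline for 24 h, then treated with compound for 6 h. Luminescence was read after One-Glo addition. AC50 was derived relative to 10 uM tool compound as positive control.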

NUGC3 cells (p53 Y220C) = test: Cell Proliferation Assay (CellTiter-Glo), NUGC3 p53 Y220C; type: cell-based; settings: Homo sapiens, NUGC-3, 120 h, 5 days, read-out: CTG NUGC3 P53 Y220C IC50
In short: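 Seeded at 250–500 cells/well, then compound-treated for 5 days; the NCIH1299 lines carry Tet-One inducible p53 Y220C or R273H transduced lentivirally. Viability by CellTiter-Glo luminescence after 10 min at room temperature; IC50 calculated.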

[2] = tested on: NCIH1299-inducible p53 Y220C cells; test: Cell Proliferation Assay (CellTiter-Glo), NCIH1299-inducible p53 Y220C; type: cell-based; settings: Homo sapiens, NCI-H1299, 120 h, 5 days, read-out: CTG H1299 P53 Y220C IC50
Protocol: Inducible p53 Y220C and R273H constructs (Tet-One inducible expression system; Takara) were stably expressed in NCIH1299 cells by lentiviral transduction. NUGC3, A549, BxPC3, T3M4, HuH7, HCC2935, MFE296, NCIH1299, NCIH1299-inducible p53 Y220C, and NCIH1299-inducible p53 R273H cell lines were used for cell proliferation assay. 250-500 cells were seeded in each well of 384 plate and then compounds were dispensed into each well using Echo or Tecan. After 5 days of incubation, equal volume of CellTiter-Glo reagent (G7570; Promega) was added into each well and the plate was incubated at room temperature for 10 minutes with shaking. The luminescent signal was measured by PheraStar microplate reader and IC50 was calculated.

T1 sequence (P04637 94-293, stated change not applied): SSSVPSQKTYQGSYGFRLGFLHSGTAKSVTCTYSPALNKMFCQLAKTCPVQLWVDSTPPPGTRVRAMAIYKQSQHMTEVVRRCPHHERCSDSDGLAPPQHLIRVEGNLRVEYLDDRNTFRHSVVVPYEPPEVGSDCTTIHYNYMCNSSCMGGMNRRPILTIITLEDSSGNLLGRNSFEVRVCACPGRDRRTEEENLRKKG

| Compound | Kd [1] [nM] | AC50 (p53 Y220C) [nM] | IC50 (NUGC3 cells (p53 Y220C)) [nM] | IC50 [2] [nM] |
| --- | --- | --- | --- | --- |
| CN1CC[C@@H](Nc2cccn3c(SC(F)(F)F)c(-c4noc(CNC(=O)C(C)(C)O)n4)cc23)[C@@H](F)C1 [Example 49, N-{[3-(8-{[(3S,4R)-3-fluoro-1-methylpiperidin-4-yl]amino}-3-[(trifluoromethyl)sulfanyl]indolizin-2-yl)-1,2,4-oxadiazol-5-yl]methyl}-2-hydroxy-2-methylpropanamide] | 10 to 100 | 1500 to 3000 | ≥ 3000 | 1500 to 3000 |
| CN1CC[C@@H](Nc2cccn3c(SC(F)(F)F)c(-c4noc(CNC(=O)c5cccc6c5NC(=O)C6)n4)cc23)[C@@H](F)C1 [Example 17, N-{[3-(8-{[(3S,4R)-3-fluoro-1-methylpiperidin-4-yl]amino}-3-[(trifluoromethyl)sulfanyl]indolizin-2-yl)-1,2,4-oxadiazol-5-yl]methyl}-2-oxo-1,3-dihydroindole-7-carboxamide] | < 10 | < 750 | < 750 | 750 to 1500 |
| Cc1c(C(=O)NCc2nc(-c3cc4c(N[C@@H]5CCN(C)C[C@@H]5F)cccn4c3SC(F)(F)F)no2)sc2nc[nH]c(=O)c12 [Example 14, N-{[3-(8-{[(3S,4R)-3-fluoro-1-methylpiperidin-4-yl]amino}-3-[(trifluoromethyl)sulfanyl]indolizin-2-yl)-1,2,4-oxadiazol-5-yl]methyl}-5-methyl-4-oxo-3H-thieno[2,3-d]pyrimidine-6-carboxamide] | 10 to 100 | 1500 to 3000 | 750 to 1500 | 750 to 1500 |
| CN1CC[C@@H](Nc2cccn3c(SC(F)(F)F)c(-c4noc(CNC(=O)c5ccc6c(c5)C(C)(C)C(=O)N6)n4)cc23)[C@@H](F)C1 [Example 15, N-{[3-(8-{[(3S,4R)-3-fluoro-1-methylpiperidin-4-yl]amino}-3-[(trifluoromethyl)sulfanyl]indolizin-2-yl)-1,2,4-oxadiazol-5-yl]methyl}-3,3-dimethyl-2-oxo-1H-indole-5-carboxamide] | < 10 | < 750 | < 750 | < 750 |
| CN1CC[C@@H](Nc2cccn3c(SC(F)(F)F)c(-c4noc(CNC(=O)CC(C)(C)O)n4)cc23)[C@@H](F)C1 [Example 65, N-{[3-(8-{[(3S,4R)-3-fluoro-1-methylpiperidin-4-yl]amino}-3-[(trifluoromethyl)sulfanyl]indolizin-2-yl)-1,2,4-oxadiazol-5-yl]methyl}-3-hydroxy-3-methylbutanamide] | 10 to 100 | ≥ 3000 | ≥ 3000 | ≥ 3000 |
| CN1CC[C@@H](Nc2cccn3c(SC(F)(F)F)c(-c4noc(CNC(=O)c5sccc5OC(F)F)n4)cc23)[C@@H](F)C1 [Example 41, 3-(difluoromethoxy)-N-{[3-(8-{[(3S,4R)-3-fluoro-1-methylpiperidin-4-yl]amino}-3-[(trifluoromethyl)sulfanyl]indolizin-2-yl)-1,2,4-oxadiazol-5-yl]methyl}thiophene-2-carboxamide] | 10 to 100 | 750 to 1500 | 750 to 1500 | 750 to 1500 |
| CN1CC[C@@H](Nc2cccn3c(SC(F)(F)F)c(-c4noc(CNC(=O)C56CC(NC(=O)OC(C)(C)C)(C5)C6)n4)cc23)[C@@H](F)C1 [Example 45, tert-butyl N-[3-({[3-(8-{[(3S,4R)-3-fluoro-1-methylpiperidin-4-yl]amino}-3-[(trifluoromethyl)sulfanyl]indolizin-2-yl)-1,2,4-oxadiazol-5-yl]methyl}carbamoyl)bicyclo[1.1.1]pentan-1-yl]carbamate] | 10 to 100 | ≥ 3000 | 1500 to 3000 | ≥ 3000 |
| CN1CC[C@@H](Nc2cccn3c(SC(F)(F)F)c(-c4noc(CNC(=O)C#CC5(C)CC5)n4)cc23)[C@@H](F)C1 [Example 31, N-{[3-(8-{[(3S,4R)-3-fluoro-1-methylpiperidin-4-yl]amino}-3-[(trifluoromethyl)sulfanyl]indolizin-2-yl)-1,2,4-oxadiazol-5-yl]methyl}-3-(1-methylcyclopropyl)prop-2-ynamide] | < 10 | < 750 | < 750 | < 750 |
| CN1CC[C@@H](Nc2cccn3c(SC(F)(F)F)c(-c4noc(CNC(=O)c5ccc6c(c5)NC(=O)CN6C)n4)cc23)[C@@H](F)C1 [Example 23, N-{[3-(8-{[(3S,4R)-3-fluoro-1-methylpiperidin-4-yl]amino}-3-[(trifluoromethyl)sulfanyl]indolizin-2-yl)-1,2,4-oxadiazol-5-yl]methyl}-1-methyl-3-oxo-2,4-dihydroquinoxaline-6-carboxamide] | < 10 | < 750 | < 750 | < 750 |
| CN1CC[C@@H](Nc2cccn3c(SC(F)(F)F)c(-c4noc(CNC(=O)c5ccc6c(c5)CC(=O)N6)n4)cc23)[C@@H](F)C1 [Example 18, N-{[3-(8-{[(3S,4R)-3-fluoro-1-methylpiperidin-4-yl]amino}-3-[(trifluoromethyl)sulfanyl]indolizin-2-yl)-1,2,4-oxadiazol-5-yl]methyl}-2-oxo-1,3-dihydroindole-5-carboxamide] | < 10 | 750 to 1500 | < 750 | 750 to 1500 |
| CN1CC[C@@H](Nc2cccn3c(SC(F)(F)F)c(-c4nsc(CNC(=O)c5cnn(C(C)(C)C)c5)n4)cc23)[C@@H](F)C1 [Example 5, 1-tert-butyl-N-{[3-(8-{[(3S,4R)-3-fluoro-1-methylpiperidin-4-yl]amino}-3-[(trifluoromethyl)sulfanyl]indolizin-2-yl)-1,2,4-thiadiazol-5-yl]methyl}pyrazole-4-carboxamide] | 100 to 1000 | ≥ 3000 | ≥ 3000 | ≥ 3000 |
| CN1CC[C@@H](Nc2cccn3c(SC(F)(F)F)c(-c4noc(CNC(=O)C5(O)CC5)n4)cc23)[C@@H](F)C1 [Example 24, N-{[3-(8-{[(3S,4R)-3-fluoro-1-methylpiperidin-4-yl]amino}-3-[(trifluoromethyl)sulfanyl]indolizin-2-yl)-1,2,4-oxadiazol-5-yl]methyl}-1-hydroxycyclopropane-1-carboxamide] | < 10 | < 750 | 750 to 1500 | 750 to 1500 |
| CN1CC[C@@H](Nc2cccn3c(SC(F)(F)F)c(-c4noc(CNC(=O)[C@@H]5COCCO5)n4)cc23)[C@@H](F)C1 [Example 11, (2S)—N-{[3-(8-{[(3S,4R)-3-fluoro-1-methylpiperidin-4-yl]amino}-3-[(trifluoromethyl)sulfanyl]indolizin-2-yl)-1,2,4-oxadiazol-5-yl]methyl}-1,4-dioxane-2-carboxamide] | < 10 | 750 to 1500 | 750 to 1500 | 750 to 1500 |
| CN1CC[C@@H](Nc2cccn3c(SC(F)(F)F)c(-c4noc(CNC(=O)c5cnc(N6CCOCC6)o5)n4)cc23)[C@@H](F)C1 [Example 66, N-{[3-(8-{[(3S,4R)-3-fluoro-1-methylpiperidin-4-yl]amino}-3-[(trifluoromethyl)sulfanyl]indolizin-2-yl)-1,2,4-oxadiazol-5-yl]methyl}-2-(morpholin-4-yl)-1,3-oxazole-5-carboxamide] | < 10 | < 750 | < 750 | < 750 |
| CN1CC[C@@H](Nc2cccn3c(SC(F)(F)F)c(-c4noc(CNC(=O)c5cnc(N(C)C)o5)n4)cc23)[C@@H](F)C1 [Example 12, 2-(dimethylamino)-N-{[3-(8-{[(3S,4R)-3-fluoro-1-methylpiperidin-4-yl]amino}-3-[(trifluoromethyl)sulfanyl]indolizin-2-yl)-1,2,4-oxadiazol-5-yl]methyl}-1,3-oxazole-5-carboxamide] | < 10 | < 750 | < 750 | < 750 |
| C[C@H](O)CC(=O)NCc1nc(-c2cc3c(N[C@@H]4CCN(C)C[C@@H]4F)cccn3c2SC(F)(F)F)no1 [Example 64, (3S)—N-{[3-(8-{[(3S,4R)-3-fluoro-1-methylpiperidin-4-yl]amino}-3-[(trifluoromethyl)sulfanyl]indolizin-2-yl)-1,2,4-oxadiazol-5-yl]methyl}-3-hydroxybutanamide] | 10 to 100 | ≥ 3000 | ≥ 3000 | ≥ 3000 |

From patent US20260347353A1, “INDOLIZINE DERIVATIVES FOR TREATING CANCER” (Antares Therapeutics, Inc., priority 2022, published 2026)
